In patent publication US9155791B2, “Metallation enhancements in tumor-imaging and PDT therapy” (Health Research, Inc., priority 2010, dated 2015):

Tested on: tumors
Assay: Fluorescence tumor imaging dose versus PDT therapeutic dose (FIG. 4)
Type: in vivo

For `CCCCCCOC(C)c1c(C)c2cc3nc(c4c5[nH]c(cc6nc(cc1[nH]2)C(C)=C6CC)c(C)c5C(=O)C4)C(CCC(=O)Nc1ccc(SC2=C(C=CC4=[N+](CCCCS(=O)(=O)[O-])c5ccc6ccccc6c5C4(C)C)CCCC2=CC=C2N(CCCCS(=O)(=O)[O-])c4ccc5ccccc5c4C2(C)C)cc1)C3C.[Na+]` (stereo not shown) [HPPH-CD], the “therapeutic dose relative to tumor-imaging dose (fold higher)” value was about 10 fold.
